Results published in PubChem BioAssay AID179 (DTP/NCI, 2004).
Activity calls are given as the source filed them.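 How the source made its calls: active means compounds giving half or more protection of infected cells from virus-caused growth loss, again on retest; inactive means the rest.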

Tested on: CEM cells HIV-1 protection, formazan growth assay
Test: NCI AIDS Antiviral Assay
Conditions: for IC50: measured here: growth of uninfected CEM cells
Method in brief: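 Screen of anti-HIV-1 activity in human CEM cells using a formazan-based growth measurement at five drug concentrations. Hits with 50% or greater protection were repeated, and confirmation required reproducible complete protection.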

Compound | outcome | EC50 [µM] | IC50 [µM]
CC1OC(OC2C(CO)OC(O[C@H]3CC[C@@]4(C)C(=CC[C@H]5[C@@H]6C[C@@H]7O[C@@]8(CC[C@H](C)CN8)[C@@H](C)[C@@H]7[C@@]6(C)CC[C@@H]54)C3)C(OC3OC(C)C(O)C(O)C3O)C2O)C(O)C(O)C1O (stereo partly specified) | inactive |  | 
CC(C)c1ccc2c(c1)CCC1C2(C)CCCC1(C)C(O)c1ccccc1 (stereo unspecified) |  | > 200 | 38
Cc1cccc(/C=N/NC(=S)NCCc2ccccn2)n1 |  | > 200 | 20.4
N#Cc1ccc(OCc2nc3cc(C(F)(F)F)ccc3nc2-c2ccccc2)cc1 |  | > 200 | 30.2
COc1cc(CNC(=O)CCCCCCCCCCSC#N)ccc1O |  | > 200 | 27.5
C(=Nc1cnc2ccccc2c1)c1ccccn1 |  | > 407 | 102
Cn1c2c(c(=O)n(C)c1=O)CS(=O)c1ccccc1N2 (stereo unspecified) |  | > 309 | 234
COc1ccc(-c2c(C3=NCCCN3)nnn2-c2ccc([N+](=O)[O-])cc2)cc1 |  | > 13.8 | > 13.8
COC(=O)[C@@H]1C[C@@H](O)CN1C(=O)c1ccc([N+](=O)[O-])cc1[N+](=O)[O-] |  | > 200 | 129
O=C(/C=C/c1ccccc1)CCC1C(=O)NC(=O)NC1=O |  | > 66.1 | > 66.1
S=c1sc2c(Cl)ncnc2n1-c1ccccc1 |  | > 67.6 | 3.63
O=C1CN(c2ccc(Cl)cc2)C(=O)CN1NCNN1CC(=O)N(c2ccc(Cl)cc2)CC1=O |  | > 200 | > 200
COc1cc2ccc1OCc1cccc(n1)COc1ccc(cc1OC)C=NCCNCCNCCN=C2 |  | > 200 | 110
CCOC(=O)/C(=C\c1c(C)[nH]c2ccccc12)P(=O)(OCC)OCC |  | 69.2 | 110
CC(=O)/C(C)=C(/C)[O-].CC(=O)/C(C)=C(/C)[O-].NCCNCCCNC(=O)c1cccc2cc3ccccc3nc12.[Co+3].[O-][Cl+3]([O-])([O-])[O-] |  | > 100 | 3.47
N#CCCN(c1ccc(C=Nc2ccccc2Cl)cc1)S(=O)(=O)c1ccccc1 |  | > 427 | 331
CC(=O)NC1C(OCc2ccccc2)OC(CO)C(O)C1OCC(=O)N1CCCC1C(=O)NC(CCC(=O)NCCCCCNc1c2ccccc2nc2cccc([N+](=O)[O-])c12)C(N)=O (stereo unspecified) |  | > 200 | 0.209
COC(=O)/C(=N/NC(C)(C)C)C(C(=O)C=C(C)C)C(=O)C(=O)Nc1ccc(Cl)cc1C (stereo unspecified) |  | > 398 | 269
CCCCN(C(=O)NCCC)S(=O)(=O)c1ccc(Cl)cc1 | inactive |  | 
Cn1c(=O)oc2cc(C(=O)CSC(=S)N3CCCCCC3)ccc21 |  | > 200 | 135
O=Nc1ccc(Cl)cc1C(=O)c1ccccc1 |  | > 200 | 32.4
Cc1cc(Cl)c2c(c1)C(=O)/C(=C/c1ccc(Cl)cc1)O2 |  | > 200 | 15.8

Compound | outcome | EC50 [µM] | IC50 [µM]
O=C(O)CN(c1ccccc1)S(=O)(=O)c1ccc([N+](=O)[O-])cc1 | inactive |  | 
O=[P+](O)c1ccsc1 | inactive |  | 
C=C1C[C@@H]2O[C@H]3[C@H]4[C@@H](C[C@@H](C)[C@@H](OC(C)=O)[C@H]42)[C@@H](C)CO[C@@]3(C)[C@H](OC(C)=O)C[C@H]1O |  | > 200 | 51.3
NS(=O)(=O)c1ccc(N=Nc2c(O)n(-c3ccccc3)n(-c3ccccc3)c2=O)cc1 |  | > 200 | 79.4
O=C(Cc1csc2[n+]1C(=O)/C(=C/c1cccc([N+](=O)[O-])c1)S2)Nc1ccccc1 | inactive |  | 
CC(=O)NN(c1ccccc1)C1CCN(c2ccccc2)N1C(C)=O (stereo unspecified) |  | > 200 | 10.7
CCC1(O)C(=O)OCc2c1cc1n(c2=O)Cc2cc3cc(OC)c(OC)cc3nc2-1 (stereo unspecified) |  | > 10 | 1.29
CC(=O)Oc1ccc(-c2cc3ccccc3oc2=O)cc1OC(C)=O |  | > 200 | 8.32
CN(C)CCCNCc1cc(N(C)C)cc(CNCCCN(C)C)n1 |  | > 200 | > 200
O=C1C(I)=CC(=C(c2cc(I)c(O)c(I)c2)c2ccccc2C(=O)O)C=C1I | inactive |  | 
COC(=O)CN(CC(O)C(NC(C)=O)C(O)C=O)C(=O)OCc1ccccc1 (stereo unspecified) |  | > 200 | > 200
CCOP(=O)(CCCC(O)CNc1cc(Cl)nc(N)n1)OCC (stereo unspecified) |  | > 200 | > 200
CCCCCCCCCCCCCCCCOCC(CN(C)CCN(C)C)OCCCCCCCCCCCCCCCC (stereo unspecified) | inactive |  | 
CC1=C2CC(C)(C)CC(=O)C2(C)CCC1=O (stereo unspecified) | inactive |  | 
COC(=O)/C=C(/Sc1nc(Cl)c(Cl)nc1N)C(=O)OC (tested in a mixture with another compound) |  | > 200 | 2.45
CC1=C(C)C(=O)c2c(cc3ccccn23)C1=O | inactive |  | 
COc1ccc(CC(COS(=O)(=O)c2ccc(C)cc2)NS(=O)(=O)c2ccc(C)cc2)cc1 (stereo unspecified) |  | > 200 | 26.9
Nc1ccc2c(SCc3ccc([N+](=O)[O-])cc3)c3ccccc3nc2c1 |  | > 20 | 3.02
NC1=Nc2ccccc2Sc2nccn21 |  | > 200 | 28.8
O=C1CC2(CCNCC2)C(=O)N1N1CCOCC1 |  | > 200 | > 200
COc1ccccc1C1c2cc3c(cc2OC(O)(CO)C1C(=O)O)OCO3 (stereo unspecified) (tested in a mixture with another compound) | inactive |  | 
